According to patent publication US11998600B2, “Enhancing the therapeutic activity of an immune checkpoint inhibitor” (MaineHealth, priority 2015, dated 2024):

Key:
[1] = tested on: chick chorioallantoic membrane (CAM); experiment: Chick CAM inflammation assay, FGF-2 induced, antibody treatment; assay type: in vivo; details: FGF-2 stimulation in the absence of cortisone acetate; FIG. 3E
Experimental: The chick chorioallantoic membrane (CAM) assays were carried out with some modifications (19). For all experiments CAMs of 10-day-old chick embryos obtained from Charles River (North Franklin, CT) were separated from the shell membrane. Filter discs either non-treated (inflammation assays) pretreated (angiogenesis assays) with cortisone acetate (3.0 mg/ml) containing RPMI only or FGF-2 (40 ng). CAMs were either non-treated or treated topically with Mab XL313, XL166 or a non-specific control antibody (10 μg/embryo every 24 h for three consecutive treatments). […] At the end of the incubation period the embryos were sacrificed and the CAM tissues were analyzed. Angiogenesis was quantified by counting the number of angiogenic branching blood vessels within the area of the filter disc. The angiogenic index was determined by subtracting the mean number of blood vessel branch points from untreated CAMs from each experimental condition. […]
The chick CAM has been routinely used to assess inflammation and granulation tissue formation, which are largely dependent on infiltration of chick heterophils (the avian equivalent of neutrophils), macrophages and activated fibroblasts (36,37). To study the potential differential biological impact of RGD epitopes, FGF-2 induced inflammation was examined by carrying out similar experiments in the absence of cortisone acetate and quantifying CAM thickening. […]

[2] = tested on: chick chorioallantoic membrane (CAM); experiment: Macrophage infiltration of FGF-2 stimulated CAMs (KUL1 staining); assay type: in vivo; details: FGF-2 stimulation, no cortisone acetate; FIG. 3D
Experimental: The chick chorioallantoic membrane (CAM) assays were carried out with some modifications (19). For all experiments CAMs of 10-day-old chick embryos obtained from Charles River (North Franklin, CT) were separated from the shell membrane. Filter discs either non-treated (inflammation assays) pretreated (angiogenesis assays) with cortisone acetate (3.0 mg/ml) containing RPMI only or FGF-2 (40 ng). CAMs were either non-treated or treated topically with Mab XL313, XL166 or a non-specific control antibody (10 μg/embryo every 24 h for three consecutive treatments). For peptide induction experiments, CAMs were stimulated with 100 ng/ml of the RGD peptides (P-1, P-2, P-C) in the presence or absence of the P38MAPK inhibitor, SB202190 (10 μM). At the end of the incubation period the embryos were sacrificed and the CAM tissues were analyzed. Angiogenesis was quantified by counting the number of angiogenic branching blood vessels within the area of the filter disc. The angiogenic index was determined by subtracting the mean number of blood vessel branch points from untreated CAMs from each experimental condition. […]
CAMs examined for accumulation of granulation tissue were harvested, fixed in 4% PFA and paraffin embedded and sectioned (4 μm) and stained with Giemsa. CAM tissues analyzed via immunofluorescence were harvested, embedded with OCT, snap frozen and sectioned (4 μM). […]

chick embryos = experiment: Circulating Mab XL313 reactive epitope in chick embryo serum, solid-phase ELISA; assay type: in vivo; details: serum collected three days after FGF-2 stimulation, FIG. 5A
Experimental: Due to the differential expression and bio-distribution of the RGDKGE (SEQ ID NO. 1) epitope in angiogenic CAM tissues and its expression in macrophage-conditioned medium, it was determined whether a soluble circulating form of this RGDKGE (SEQ ID NO. 1) epitope could be generated. To examine this possibility, chick embryos were either un-treated or stimulated with FGF-2 and serum, and collected three days later. […] In contrast, a (P<0.05) 2-fold increase was detected in the levels of circulating XL313 epitope following FGF-2 stimulation. These findings indicated the differential release of a soluble form of this RGDKGE (SEQ ID NO. 1) containing collagen epitope.

[3] = tested on: chick chorioallantoic membrane (CAM); experiment: Chick CAM inflammation assay, induction by RGD collagen peptides; assay type: in vivo; details: FGF-2, absence of cortisone acetate; FIG. 5D
Experimental: The chick chorioallantoic membrane (CAM) assays were carried out with some modifications (19). For all experiments CAMs of 10-day-old chick embryos obtained from Charles River (North Franklin, CT) were separated from the shell membrane. Filter discs either non-treated (inflammation assays) pretreated (angiogenesis assays) with cortisone acetate (3.0 mg/ml) containing RPMI only or FGF-2 (40 ng). CAMs were either non-treated or treated topically with Mab XL313, XL166 or a non-specific control antibody (10 μg/embryo every 24 h for three consecutive treatments). […] At the end of the incubation period the embryos were sacrificed and the CAM tissues were analyzed. Angiogenesis was quantified by counting the number of angiogenic branching blood vessels within the area of the filter disc. The angiogenic index was determined by subtracting the mean number of blood vessel branch points from untreated CAMs from each experimental condition. Eight to twelve embryos were used per condition and experiments were repeated at least three times.
The effects of the soluble RGD containing collagen peptides on inflammation were examined.

PDL-1 = PDL-1 Western blot, M21 melanoma cells attached to αvβ3 ligands; assay type: cell-based, human; details: immobilized epitope vs uncoated wells; 15 minute incubation; FIG. 15
Experimental: FIGS. 14A and 14B are blots of integrin αvβ3 expressing melanoma cells (M21 and CLL-49) and FIG. 14C is a blot depicting that endothelial cells (HUVEC) were allowed to attach to well coated with either a non-αvβ3 binding ligand (native collagen-IV) or an αvβ3 binding ligand (denatured collagen-IV). Whole cell lysates were prepared and the relative levels of PDL-1 or loading control β-actin were assessed by Western blot.
Integrin αvβ3 expressing melanoma cells (M21) were seeded on control uncoated wells or wells immobilized with the XL313 cryptic collagen epitope (RGDKGE (SEQ ID NO. 1)). Following a 15 minute incubation cell lysates were prepared. The relative levels of PDL-1 or loading control β-actin were assessed by Western blot.
Integrin αvβ3 expressing melanoma cells M21 (FIG. 14A) and CCL-49 (FIG. 14B) and endothelial cells (HUVEC) (FIG. 14C) were attached to wells coated with either a non-αvβ3 binding ligand (native collagen-IV) or an αvβ3 binding ligand (denatured collagen-IV). Whole cell lysates were prepared and the relative levels of PDL-1 or β-actin loading control were assessed.
Integrin αvβ3 expressing melanoma cells (M21) were seeded onto control uncoated wells or wells immobilized with the XL313 cryptic collagen epitope (RGDKGE (SEQ ID NO. 1)) (FIG. 15). Following an incubation period, cell lysates were prepared and relative levels of PDL-1 were assessed.

Substance	CAMs showing robust formation of thick granulation tissue [1]	macrophage infiltration of the CAMs, enhancement as compared to control [2]	increase in levels of circulating XL313 epitope in serum (chick embryos) [fold]	CAMs exhibiting extensive tissue thickening [3]	levels of PDL-1 protein in M21 melanoma cells on immobilized epitope (PDL-1)
FGF-2: Fibroblast growth factor-2 from R&D Systems, stimulus of CAM angiogenesis and inflammation	approximately 50%	over 2 fold	2	55%-60%	–
RGDKGE (immobilized on wells) [XL313 epitope, αvβ3 ligand]	–	–	–	–	enhanced levels of PDL-1 protein
